Source: patent publication US11160797B2, “Pyridinone derivatives and their use as selective ALK-2 inhibitors” (NOVARTIS AG, priority 2017, dated 2021)

Experiments:
[1] = molecular target: T1, wild-type ALK2 (aa172-499) (Homo sapiens (Human), UniProt Q04771); assay: ADPGlo biochemical autophosphorylation assay, ALK2; conditions: 15 uM ATP
[2] = molecular target: ALK3 (aa198-525) (Homo sapiens (Human), UniProt P36894); assay: ADPGlo biochemical autophosphorylation assay, ALK3; conditions: 15 uM ATP
Chain of ALK3 (aa198-525) (P36894 198-525): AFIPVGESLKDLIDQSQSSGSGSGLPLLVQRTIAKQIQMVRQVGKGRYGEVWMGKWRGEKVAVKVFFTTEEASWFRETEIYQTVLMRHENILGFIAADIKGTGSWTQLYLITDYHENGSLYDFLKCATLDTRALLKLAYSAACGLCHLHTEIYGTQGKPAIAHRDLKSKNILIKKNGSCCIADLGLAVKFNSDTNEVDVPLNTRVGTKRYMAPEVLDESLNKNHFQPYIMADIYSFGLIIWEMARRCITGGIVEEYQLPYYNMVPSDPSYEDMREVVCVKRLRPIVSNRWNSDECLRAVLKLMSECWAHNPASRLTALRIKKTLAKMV

[3] = molecular target: T1, wild-type ALK2 (aa172-499); assay: Caliper biochemical peptide phosphorylation assay, ALK2; conditions: Caliper peptide phosphorylation, 15 uM ATP; read-out: ALK2 IC50
[4] = molecular target: ALK2 FOP mutant (aa172-499 R206H) (Homo sapiens (Human), UniProt Q04771, R206H); assay: Caliper biochemical peptide phosphorylation assay, ALK2 FOP; conditions: Caliper peptide phosphorylation, R206H, 15 uM ATP; read-out: ALK2 FOP EPK IC50
Chain of ALK2 FOP mutant (aa172-499 R206H) (Q04771 172-499 R206H): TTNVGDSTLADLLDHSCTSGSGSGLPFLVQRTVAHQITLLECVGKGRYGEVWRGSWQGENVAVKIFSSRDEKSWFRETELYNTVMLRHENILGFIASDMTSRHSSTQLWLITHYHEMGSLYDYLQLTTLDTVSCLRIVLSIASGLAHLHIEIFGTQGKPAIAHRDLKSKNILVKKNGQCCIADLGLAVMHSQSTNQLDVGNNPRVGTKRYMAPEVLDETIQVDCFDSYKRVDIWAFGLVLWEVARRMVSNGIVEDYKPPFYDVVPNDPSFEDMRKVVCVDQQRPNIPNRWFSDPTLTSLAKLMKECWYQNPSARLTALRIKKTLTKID

[5] = molecular target: ALK1 (aa166-493) (Homo sapiens (Human), UniProt P37023); assay: Caliper biochemical peptide phosphorylation assay, ALK1; conditions: 15 uM ATP
Chain of ALK1 (aa166-493) (P37023 166-493): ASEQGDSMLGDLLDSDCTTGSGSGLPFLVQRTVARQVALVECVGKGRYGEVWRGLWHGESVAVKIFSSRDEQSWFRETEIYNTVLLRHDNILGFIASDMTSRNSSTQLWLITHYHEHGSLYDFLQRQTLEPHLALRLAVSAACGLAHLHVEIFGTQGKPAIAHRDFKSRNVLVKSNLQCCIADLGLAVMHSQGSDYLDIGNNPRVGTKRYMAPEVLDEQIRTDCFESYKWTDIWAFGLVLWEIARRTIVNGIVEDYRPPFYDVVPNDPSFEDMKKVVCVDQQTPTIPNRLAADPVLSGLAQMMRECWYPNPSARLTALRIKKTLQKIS

[6] = molecular target: ALK5 (aa162-503) (Homo sapiens (Human), UniProt P36897); assay: Caliper biochemical peptide phosphorylation assay, ALK5; conditions: 15 uM ATP
Chain of ALK5 (aa162-503) (P36897 162-503): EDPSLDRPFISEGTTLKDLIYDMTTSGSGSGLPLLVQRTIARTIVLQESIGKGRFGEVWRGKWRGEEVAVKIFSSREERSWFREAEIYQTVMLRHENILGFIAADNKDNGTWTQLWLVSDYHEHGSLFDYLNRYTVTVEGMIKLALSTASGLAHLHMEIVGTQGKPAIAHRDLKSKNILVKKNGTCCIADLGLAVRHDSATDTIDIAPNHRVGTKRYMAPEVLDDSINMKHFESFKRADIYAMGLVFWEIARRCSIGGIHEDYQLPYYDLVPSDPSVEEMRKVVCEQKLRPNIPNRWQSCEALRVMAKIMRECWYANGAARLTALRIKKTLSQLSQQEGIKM
Description: For all biochemical assays, human recombinant proteins were expressed in and purified from baculo virus transfected insect cells. The constructs comprised the GS-domain and kinase domain of wild-type ALK2 (aa172-499), ALK2 FOP mutant (aa172-499 R206H), ALK3 (aa198-525), ALK5 (aa162-503) and ALK6 (aa168-495).
A kinase selectivity panel which measures substrate peptide phosphorylation was set-up for wild-type ALK2 (aa172-499), ALK2 FOP mutant (aa172-499 R206H), ALK1 (aa166-493), ALK5 (aa162-503) and ALK6 (aa168-495). The technology used for the described assay is based on the separation and quantification of substrate and product in an electrical field. In the course of the kinase reaction the peptide substrate is phosphorylated by a kinase. […] Due to this difference in charge the phosphorylated und unphosphorylated peptides migrate with different velocities in an electrical field.
In the applied method, this separation takes place inside a chip that contains a complex capillary system for simultaneous analysis of 12 samples (“LabChip EZ Reader 12-sipper chip”, Caliper Technologies Corp., Mountain View, USA). In order to allow the detection and quantification of the peptides in the capillary system, the peptides carry a fluorescent label (fluorescein). With this label the peptides can be quantified by fluorescence intensity through the instruments laser and detection system (LC3000, Caliper Life Sciences).
The assays were performed in 384-well, low volume microtiter assay plates in a final reaction volume of 9 ul. Dose-response curves were generated by incubating 10 nM of each kinase together with 2 uM of the fluorescently labeled substrate peptide 5-Fluo-Ahx-[…]-T-[…]-amid (10 mM stock solution in DMSO) in 50 mM Hepes pH 7.5, 0.02% Tween 20, 0.02% BSA, 1 mM DTT, 10 uM Na3VO4, 10 mM ß-Glycerolphosphate, 1 mM MgCl2, 12 mM MnCl2 (ALK1 and ALK6 7 mM) and 15 uM ATP for 60 min at 30° C. in the presence or absence of compound diluted in DMSO.
Kinase reactions were terminated by adding 15 ul STOP buffer (100 mM HEPES pH 7.5, 5% DMSO, 0.1% Caliper coating reagent, 10 mM EDTA, and 0.015% Brij35.
Plates with terminated kinase reactions were transferred to the Caliper LC3000 workstation (Caliper Technologies Corp., Mountain View, USA) for reading. The relative amount of phosphorylated peptide r, was calculated using the heights of the substrate peak, s, and the product peak, p:r=p/(p+s).
IC50 values for a given antagonist correspond to the compound concentration needed to inhibit half of the maximum signal of the kinase reaction.

[7] = molecular target: ALK6 (aa168-495) (Homo sapiens (Human), UniProt O00238); assay: Caliper biochemical peptide phosphorylation assay, ALK6; conditions: 15 uM ATP
Chain of ALK6 (aa168-495) (O00238 168-495): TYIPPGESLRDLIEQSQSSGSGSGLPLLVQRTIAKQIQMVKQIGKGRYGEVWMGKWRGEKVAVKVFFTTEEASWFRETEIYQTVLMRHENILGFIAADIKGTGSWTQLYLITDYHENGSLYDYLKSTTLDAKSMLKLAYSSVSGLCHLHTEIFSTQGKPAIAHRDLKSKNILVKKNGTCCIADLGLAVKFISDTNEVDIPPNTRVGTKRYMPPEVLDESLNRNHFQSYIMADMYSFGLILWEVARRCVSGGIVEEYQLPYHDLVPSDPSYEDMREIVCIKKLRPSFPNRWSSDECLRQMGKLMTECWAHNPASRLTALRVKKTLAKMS

[8] = test system: HuH7 cells, BMP response element (BRE) luciferase reporter, BMP6 stimulated; assay: BMP signaling reporter gene assay; format: cell-based; conditions: Homo sapiens, Huh-7; BMP6 100 ng/ml; read-out: MSD HuH7 cell BMP reporter IC50
Description: A human liver hepatocellular carcinoma cell line (HuH7) stably transfected with a reporter plasmid consisting of the human BMP response element (BRE) from the Id1 promoter fused to a luciferase reporter gene was generated through lentiviral transduction.
Assays were performed in 384-well flat bottom polystyrene microtiter plates (cell culture treated) with sterile lids. The cells were starved through medium exchange in Blasticidine- and FCS-free medium 16 h before the assay. Prior to the assay, cells were detached from the stock flask using trypsin/EDTA and counted. A cell suspension in the same medium without Blasticidin and FCS was prepared. 2×10^4 cells in a total volume of 40 ul were added to each well of a plate already containing serial dilutions of each compound in DMSO (final DMSO concentration 0.5%). […] Assay plates are incubated for another 5 hours at 37° C., 5% CO2 before luciferase levels are measured.
The amount of expressed luciferase is quantified using the Steady-Glo® Luciferase Assay System (Promega #E2520).

T1 sequence (Q04771 172-499): as the sequence (Q04771 172-499 R206H) above, with H35R counted along it

Row | SMILES | IC50 [1] [nM] | IC50 [2] [nM] | IC50 [3] [nM] | IC50 [4] [nM] | IC50 [5] [nM] | IC50 [6] [nM] | IC50 [7] [nM] | IC50 [8] [nM]
1 | CN1C(=O)Cc2cc(-c3cncc(-c4ccc(=O)n(CCC(F)(F)F)c4)c3)ccc21 [Example 16, 1-methyl-5-(6′-oxo-1′-(3,3,3-trifluoropropyl)-1′,6′-dihydro-[3,3′-bipyridin]-5-yl)indolin-2-one] | 1100 | 15000 | 820 | 830 | 8700 | > 10000 | > 10000 | 1200
2 | CC(C)CCn1cc(-c2cncc(-c3ccc4c(c3)CC(=O)N4C)c2)ccc1=O [Example 17, 5-(1′-isopentyl-6′-oxo-1′,6′-dihydro-[3,3′-bipyridin]-5-yl)-1-methylindolin-2-one] | 1100 | > 15100 | 920 | 910 | 7000 | > 10000 | > 10000 | 1200
3 | CN1C(=O)Cc2cc(-c3cncc(-c4ccc(=O)n(C5CCCCO5)c4)c3)ccc21 (stereo not shown) [Example 18, 1-methyl-5-(6′-oxo-1′-(tetrahydro-2H-pyran-2-yl)-1′,6′-dihydro-[3,3′-bipyridin]-5-yl)indolin-2-one] | 1000 | > 15100 | 710 | 600 | 4700 | > 10000 | > 10000 | 420
4 | CN1C(=O)Cc2cc(-c3cncc(-c4ccc(=O)n(C)c4)c3)ccc21 [Example 19, 1-methyl-5-(1′-methyl-6′-oxo-1′,6′-dihydro-[3,3′-bipyridin]-5-yl)indolin-2-one] | 2200 | 5400 | 740 | 810 | 4200 | > 10000 | 9300 | 1900
5 | CC(C)N1C(=O)Cc2cc(-c3cncc(-c4ccc(=O)n(C(C)C)c4)c3)ccc21 [Example 21, 1-Isopropyl-5-(1′-isopropyl-6′-oxo-1′,6′-dihydro-[3,3′-bipyridin]-5-yl)indolin-2-one] | 64 | 570 | 60 | 53 | 360 | 1800 | 720 | 60
6 | CCC1C(=O)N(C)c2ccc(-c3cncc(-c4ccc(=O)n(C(C)C)c4)c3)cc21 (stereo not shown) [Example 22, 3-Ethyl-5-(1′-isopropyl-6′-oxo-1′,6′-dihydro-[3,3′-bipyridin]-5-yl)-1-methylindolin-2-one] | 725 | 4200 | 390 | 340 | 2170 | > 10000 | 2770 | 540
7 | CC(C)n1cc(-c2cncc(-c3ccc4c(c3)C(F)(F)C(=O)N4C)c2)ccc1=O [Example 23, 3,3-Difluoro-5-(1′-isopropyl-6′-oxo-1′,6′-dihydro-[3,3′-bipyridin]-5-yl)-1-methylindolin-2-one] | 1200 | 5800 | 670 | 870 | 5600 | > 10000 | 4500 | 1200
8 | CC(C)CN1C(=O)Cc2cc(-c3cncc(-c4ccc(=O)n(C(C)C)c4)c3)ccc21 [Example 24, 1-Isobutyl-5-(1′-isopropyl-6′-oxo-1′,6′-dihydro-[3,3′-bipyridin]-5-yl)indolin-2-one] | 67 | 300 | 70 | 60 | 420 | 1900 | 800 | 60
9 | CCCN1C(=O)Cc2cc(-c3cncc(-c4ccc(=O)n(C(C)C)c4)c3)ccc21 [Example 25, 5-(1′-Isopropyl-6′-oxo-1′,6′-dihydro-[3,3′-bipyridin]-5-yl)-1-propylindolin-2-one] | 100 | 490 | 80 | 70 | 540 | 1500 | 1000 | 90
10 | CC(C)n1cc(-c2cncc(-c3cc(F)c4c(c3)CC(=O)N4C)c2)ccc1=O [Example 36, 7-Fluoro-5-(1′-isopropyl-6′-oxo-1′,6′-dihydro-[3,3′-bipyridin]-5-yl)-1-methylindolin-2-one] | 350 | 2400 | 190 | 230 | 1300 | 9300 | 2900 | 390
11 | CC(C)n1cc(-c2cncc(-c3cnc4c(c3)CCC(=O)N4C)c2)ccc1=O [Example 37, 6-(1′-Isopropyl-6′-oxo-1′,6′-dihydro-[3,3′-bipyridin]-5-yl)-1-methyl-3,4-dihydro-1,8-naphthyridin-2(1H)-one] | 290 | 2500 | 240 | 240 | 1700 | > 10000 | 5400 | 300
12 | CC(C)n1cc(-c2cncc(-c3ccc4c(c3)CC(=O)N4CC3CCC3)c2)ccc1=O [Example 38, 1-(cyclobutylmethyl)-5-(1′-isopropyl-6′-oxo-1′,6′-dihydro-[3,3′-bipyridin]-5-yl)indolin-2-one] | 130 | 540 | 60 | 60 | 640 | 3400 | 1100 | 100
13 | CCC(CC)CN1C(=O)Cc2cc(-c3cncc(-c4ccc(=O)n(C(C)C)c4)c3)ccc21 [Example 40, 1-(2-ethylbutyl)-5-(1′-isopropyl-6′-oxo-1′,6′-dihydro-[3,3′-bipyridin]-5-yl)indolin-2-one] | 94 | 800 | 100 | 80 | 900 | 4200 | 860 | 100
14 | CC(C)n1cc(-c2cncc(-c3cnc4c(c3)CC(=O)N4)c2)ccc1=O [Example 41, 5-(1′-Isopropyl-6′-oxo-1′,6′-dihydro-[3,3′-bipyridin]-5-yl)-1H-pyrrolo[2,3-b]pyridin-2(3H)-one] | 490 | 6300 | 470 | 710 | 6400 | > 10000 | > 10000 | 630
15 | CC(C)n1cc(-c2cc(-c3ccc4c(c3)CC(=O)N4C)cnc2N)ccc1=O [Example 42, 5-(2-amino-1′-isopropyl-6′-oxo-1′,6′-dihydro-[3,3′-bipyridin]-5-yl)-1-methylindolin-2-one] | 460 | 3400 | 190 | 150 | 1400 | 5600 | 3750 | 310
16 | CC(C)n1cc(-c2nc(-c3ccc4c(c3)CC(=O)N4C)cnc2N)ccc1=O [Example 43, 5-(5-amino-6-(1-isopropyl-6-oxo-1,6-dihydropyridin-3-yl)pyrazin-2-yl)-1-methylindolin-2-one] | 90 | 600 | 100 | 90 | 520 | 1000 | 2000 | 120
17 | CC(C)n1nc(-c2cncc(-c3ccc4c(c3)CC(=O)N4C)c2)ccc1=O [Example 44, 5-(5-(1-isopropyl-6-oxo-1,6-dihydropyridazin-3-yl)pyridin-3-yl)-1-methylindolin-2-one] | 110 | 1000 | 90 | 80 | 670 | 5700 | 3050 | 230
